{"source": "patent US12605330B2", "about": "“Screening method for offensive odor-suppressing material” (Takasago International Corporation, priority 2019, dated 2026)", "key": {"[1]": {"molecular_target": "T1, human olfactory receptor OR4Q3 (Homo sapiens, UniProt Q8NH05)", "T1 construct": "N-terminal 20 amino acid residues of bovine rhodopsin (Rho tag); expressed in transfected cells; host or cells: HEK293T cells, pME18S expression vector, co-transfected with RTP1S vector and luciferase reporters", "T1 sequence (Q8NH05 1-313)": "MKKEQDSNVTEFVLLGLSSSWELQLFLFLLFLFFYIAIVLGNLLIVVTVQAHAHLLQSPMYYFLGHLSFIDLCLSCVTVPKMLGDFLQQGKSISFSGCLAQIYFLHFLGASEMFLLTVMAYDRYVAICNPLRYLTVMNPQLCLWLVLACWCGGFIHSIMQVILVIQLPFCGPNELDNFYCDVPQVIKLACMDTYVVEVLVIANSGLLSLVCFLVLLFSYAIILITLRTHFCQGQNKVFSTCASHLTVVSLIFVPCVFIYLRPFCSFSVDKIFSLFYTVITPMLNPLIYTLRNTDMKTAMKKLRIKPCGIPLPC", "assay": "Luciferase reporter gene assay, response of olfactory receptor OR4Q3 to odorous substance", "type": "cell-based", "conditions": "HEK293T cells expressing OR4Q3, various concentrations, 3 hours stimulation; FIGS. 2, 4, 5, 6", "procedure": "(§1) Human olfactory receptor genes were obtained by PCR cloning with Human Genomic DNA: Female (Promega) on the basis of their sequence information registered in GenBank. Into pME18S vectors, the N-terminal 20 amino acid residues of bovine rhodopsin were integrated and the resulting human olfactory receptor genes were integrated respectively downstream thereof to obtain human olfactory receptor gene expression vectors.\n(§2) Each human olfactory receptor gene expression vector (0.05 μg), RTP1S vector (0.01 μg), firefly luciferase vector pGL4.29 containing a cAMP response element promoter (Promega, 0.01 μg) and Renilla luciferase vector pGL4.74 containing a thymidine kinase promoter (Promega, 0.005 μg) were dissolved in 10 μL of Opti-MEMI (gibco) to give a gene solution (for one well). HEK293T cells were seeded in 100 μL volumes into 96-well plates (Biocoat, Corning) at a cell density reaching confluence after 24 hours, and the gene solutions were added to the respective wells to cause gene transfer into the cells by lipofection techniques in accordance with the usage of Lipofectamine 3000, followed by culture at 37° C. under a 5% carbon dioxide atmosphere for 24 hours.\n(§3) After removal of the culture solutions, an odorous substance serving as an analyte, which had been prepared at a given concentration with CD293 (gibco) medium (supplemented with […] L-glutamine), was added in 50 μL volumes to stimulate the cells for 3 hours, followed by luciferase activity measurement in accordance with the usage of a Dual-Luciferase Reporter Assay System (Promega). The response intensity of each olfactory receptor polypeptide was expressed as a fold increase value, which was determined by dividing the luciferase activity generated upon stimulation with the odorous substance by the luciferase activity generated in a test system not containing the odorous substance.\n(§4) The cells engineered to express human olfactory receptors OR2C1 and OR4Q3 were used to measure the response of these receptors to various concentrations of 1-octen-3-one by the luciferase reporter gene assay."}, "[2]": {"tested_on": "cells not engineered to express the olfactory receptors", "assay": "Mock test, luciferase reporter gene assay", "type": "cell-based, human", "procedure": "as §2, §3, §4"}, "[3]": {"molecular_target": "T2, human olfactory receptor OR2C1 (Homo sapiens, UniProt O95371)", "T2 construct": "N-terminal 20 amino acid residues of bovine rhodopsin (Rho tag); expressed in transfected cells; host or cells: HEK293T cells, pME18S expression vector, co-transfected with RTP1S vector and luciferase reporters", "T2 sequence (O95371 1-312)": "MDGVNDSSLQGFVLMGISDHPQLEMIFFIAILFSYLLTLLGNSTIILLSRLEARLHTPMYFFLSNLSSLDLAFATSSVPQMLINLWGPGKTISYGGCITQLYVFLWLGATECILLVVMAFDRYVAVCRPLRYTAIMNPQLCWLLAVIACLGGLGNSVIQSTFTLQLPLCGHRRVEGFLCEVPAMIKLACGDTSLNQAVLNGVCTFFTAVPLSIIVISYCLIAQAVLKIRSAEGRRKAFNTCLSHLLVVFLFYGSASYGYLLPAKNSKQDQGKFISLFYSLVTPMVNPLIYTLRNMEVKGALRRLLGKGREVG", "assay": "Luciferase reporter gene assay, response of olfactory receptor OR2C1 to odorous substance", "type": "cell-based", "conditions": "HEK293T cells expressing OR2C1, various concentrations, 3 hours stimulation; FIGS. 1 and 3", "text": "as §1, with “vectors. […]” for “vectors.”\nas §3, with “substance. […]” for “substance.”"}, "OR2C1": {"molecular_target": "T3, OR2C1 (Homo sapiens, UniProt O95371)", "T3 construct": "N-terminal 20 amino acid residues of bovine rhodopsin (Rho tag); expressed in transfected cells; host or cells: HEK293T cells, pME18S expression vector, co-transfected with RTP1S vector and luciferase reporters", "T3 sequence (O95371 1-312)": "T2 sequence (O95371 1-312)", "assay": "Suppressive effect of offensive odor-suppressing materials on the response of OR2C1 (luciferase reporter gene assay)", "type": "cell-based", "conditions": "mixed at various concentrations with 30 μM 1-octen-3-one; FIGS. 7 and 8", "text": "as §1, with “vectors. […]” for “vectors.”\nas §3, with “substance. […]” for “substance.”"}, "olfactory receptor OR2W1": {"molecular_target": "T4, olfactory receptor OR2W1 (Homo sapiens, UniProt Q9Y3N9)", "T4 sequence (Q9Y3N9 1-320)": "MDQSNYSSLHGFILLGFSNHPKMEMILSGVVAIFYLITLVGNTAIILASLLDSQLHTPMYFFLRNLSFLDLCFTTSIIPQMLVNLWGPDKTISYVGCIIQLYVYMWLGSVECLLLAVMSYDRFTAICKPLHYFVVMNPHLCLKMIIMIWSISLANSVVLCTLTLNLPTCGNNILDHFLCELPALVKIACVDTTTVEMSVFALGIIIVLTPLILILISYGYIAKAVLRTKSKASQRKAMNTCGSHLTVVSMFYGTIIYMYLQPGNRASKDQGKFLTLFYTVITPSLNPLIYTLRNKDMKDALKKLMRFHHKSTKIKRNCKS", "conditions": "background art; cited from earlier work"}, "[4]": {"conditions": "background art; cited from earlier work"}}}
{"smiles": "C=CC(O)CC=CCC", "note": "(stereo not drawn) [1,5-octadien-3-ol]", "values": [{"measurement": "response of OR4Q3 to the odorous substance (fold increase value)", "setting": "[1]", "value": "respond to 1,5-octadien-3-ol in a concentration-dependent manner"}, {"measurement": "response in Mock test", "setting": "[2]", "value": "no response was observed"}]}
{"smiles": "C=CC(=O)CC=CCC", "note": "[1,5-octadien-3-one]", "values": [{"measurement": "response of OR2C1 to the odorous substance (fold increase value)", "setting": "[3]", "value": "respond to 1,5-octadien-3-one in a concentration-dependent manner"}, {"measurement": "response of OR4Q3 to the odorous substance (fold increase value)", "setting": "[1]", "value": "respond to 1,5-octadien-3-one in a concentration-dependent manner"}, {"measurement": "response in Mock test", "setting": "[2]", "value": "no response was observed"}]}
{"smiles": "CCCC(O)CCC1C(C)CCCC1(C)C", "note": "(stereo not drawn) [1-(2,2,6-trimethylcyclohexyl)hexan-3-ol]", "values": [{"measurement": "suppressive effect on the response of OR2C1 to 1-octen-3-one (ratio of fold increase value, without material set to 100)", "setting": "OR2C1", "value": "reducing the response of OR2C1 to 1-octen-3-one in a concentration-dependent manner"}]}
{"smiles": "C=CC(O)CCCCC", "note": "(stereo not drawn) [1-octen-3-ol]", "values": [{"measurement": "response of OR4Q3 to the odorous substance (fold increase value)", "setting": "[1]", "value": "respond to 1-octen-3-ol in a concentration-dependent manner"}, {"measurement": "response in Mock test", "setting": "[2]", "value": "no response was observed"}]}
{"smiles": "C=CC(=O)CCCCC", "note": "[1-octen-3-one]", "values": [{"measurement": "response of OR2C1 to the odorous substance (fold increase value)", "setting": "[3]", "value": "respond to 1-octen-3-one in a concentration-dependent manner"}, {"measurement": "response of OR4Q3 to the odorous substance (fold increase value)", "setting": "[1]", "value": "respond to 1-octen-3-one in a concentration-dependent manner"}, {"measurement": "response in Mock test", "setting": "[2]", "value": "no response was observed"}]}
{"smiles": "CC(=CCC1CC=C(C)C1(C)C)CO", "note": "(stereo not drawn) [2-methyl-4-(2,2,3-trimethylcyclopent-3-enyl)but-2-en-1-ol]", "values": [{"measurement": "suppressive effect on the response of OR2C1 to 1-octen-3-one (ratio of fold increase value, without material set to 100)", "setting": "OR2C1", "value": "reducing the response of OR2C1 to 1-octen-3-one in a concentration-dependent manner"}]}
{"smiles": "CC(C)c1cccc(C(C)CC=O)c1", "note": "(stereo not drawn) [florhydral]", "values": [{"measurement": "inhibition of the activity of OR2W1", "setting": "olfactory receptor OR2W1", "value": "inhibiting the activity of this OR2W1"}, {"measurement": "suppression of offensive odor induced by hexanoic acid in sensory testing", "setting": "[4]", "value": "suppress an offensive odor induced by hexanoic acid"}]}
{"smiles": "CCCCCC(=O)O", "note": "[hexanoic acid]", "values": [{"measurement": "response of OR2W1 to the odorous substance", "setting": "olfactory receptor OR2W1", "value": "responds to hexanoic acid"}]}
